≈ marks a conversion by molar mass, not a printed value. Where two headings read alike, the source gives them in different places.
What was measured:
Assay type in all cases: cell-based
[1] = system: Streptococcus pyogenes (S-8); experiment: MIC, in vitro antibacterial activity (standard strains); details: Streptococcus pyogenes (S-8), 10^6 cells/ml, Gram +; read-out: MIC
S. pneumoniae IID 552 = experiment: as above; details: Streptococcus pneumoniae, IID552; S. pneumoniae IID 552, 10^6 cells/ml, Gram +; read-out: MIC
E. faecalis IID 682 = experiment: as above; details: Enterococcus faecalis, IID682; E. faecalis IID 682, 10^6 cells/ml, Gram +
[2] = system: Escherichia coli NIHJ JC-2; experiment: as above; details: NIHJJC2; Escherichia coli NIHJ JC-2, 10^6 cells/ml, Gram -; read-out: MIC
P. mirabilis IID 994 = experiment: as above; details: Proteus mirabilis, IID994
[3] = system: Klebsiella pneumoniae KY(GN)6445; experiment: as above
K. pneumoniae 1-220S = experiment: as above; details: Klebsiella pneumoniae, 1220S; K. pneumoniae 1-220S, 10^6 cells/ml, Gram -; read-out: MIC
[4] = system: Enterobacter cloacae IID 977; experiment: as above; details: IID977; Enterobacter cloacae IID 977, 10^6 cells/ml, Gram -
[5] = system: Citrobacter freundii IID 976; experiment: as above; details: IID976
[6] = system: Serratia marcescens IID 618; experiment: as above; details: IID618; Serratia marcescens IID 618, 10^6 cells/ml, Gram -
Shigella sonnei IID 969 = experiment: as above; details: IID969; Shigella sonnei IID 969, 10^6 cells/ml, Gram -
Method: (§1) Minimal inhibitory concentrations (MICs) were determined in accordance with the method recommended by Japan Society of Chemotherapy.

[7] = system: Acinetobacter anitratus IID 876; experiment: as above; details: Acinetobacter calcoaceticus, IID876; Acinetobacter anitratus IID 876, 10^6 cells/ml, Gram -
B. fragilis 25285 = experiment: as above; details: Bacteroides fragilis; B. fragilis 25285, 10^6 cells/ml, Gram -
B. fragilis 8503 = experiment: as above; details: Bacteroides fragilis; B. fragilis 8503, 10^6 cells/ml, Gram -
[8] = system: B. thetaiotaomicron (0661); experiment: as above; details: Bacteroides thetaiotaomicron; B. thetaiotaomicron (0661), 10^6 cells/ml, Gram -; read-out: MIC
F. varium KYA 8501 = experiment: as above; details: Fusobacterium varium, KYA8501; F. varium KYA 8501, 10^6 cells/ml, Gram -; read-out: MIC
[9] = system: Propionibacterium acens 11828; experiment: as above; details: Propionibacterium acens 11828, 10^6 cells/ml, Gram +
C. perfringens KYA 13123 = experiment: microbe, parasite or virus in culture; details: Clostridium perfringens, KYA13123
[10] = system: Peptostreptococcus anaerobius KYA 27337; experiment: MIC, in vitro antibacterial activity (standard strains); details: KYA27337; Peptostreptococcus anaerobius KYA 27337, 10^6 cells/ml, Gram +
S. epidermidis = experiment: MIC, in vitro antibacterial activity (clinical isolates); details: Staphylococcus epidermidis, No. of strains 10
S. pyogenes = experiment: as above; details: Streptococcus pyogenes; clinical isolates S. pyogenes, No. of strains 6; read-out: MIC
N. gonorrhoeae = experiment: as above; details: Neisseria gonorrhoeae, No. of strains 16
N. meningitidis = experiment: as above; details: Neisseria meningitidis, No. of strains 3
B. catarrhalis = experiment: as above; details: Moraxella catarrhalis; clinical isolates B. catarrhalis, No. of strains 21; read-out: MIC
E. coli = experiment: as above; details: Escherichia coli, No. of strains 25
Method: as §1

S. aureus = experiment: as above; details: Staphylococcus aureus, No. of strains 21
Method: as §1

E. cloacae = experiment: as above; details: Enterobacter cloacae
P. vulgaris = experiment: as above; details: Proteus vulgaris, No. of strains 6
C. freundii = experiment: as above; details: Citrobacter freundii, No. of strains 9
P. maltophilia = experiment: as above; details: Stenotrophomonas maltophilia, No. of strains 9
Acinetobacter sp. = experiment: as above; details: clinical isolates Acinetobacter sp., No. of strains 13; read-out: MIC
Campylobacter jejuni = experiment: as above; details: No. of strains 20
S. aureus Smith = details: Conc. of Drugs 2MIC
E. cloacae IID 977 = system: E. cloacae IID 977
S. marcescens IID 618 = system: S. marcescens IID 618
P. aeruginosa IFO 12689 = system: P. aeruginosa IFO 12689
[11] = E. cloacae IID 977, Conc. of Drugs 2MIC
[12] = E. cloacae IID 977, Conc. of Drugs 4MIC
[13] = S. marcescens IID 618, Conc. of Drugs 2MIC
[14] = S. marcescens IID 618, Conc. of Drugs 4MIC
[15] = P. aeruginosa IFO 12689, Conc. of Drugs 2MIC
[16] = P. aeruginosa IFO 12689, Conc. of Drugs 4MIC

SMILES | MIC [1] [µg/mL] | MIC (S. pneumoniae IID 552) [µg/mL] | MIC (E. faecalis IID 682) [µg/mL] | MIC [2] [µg/mL] | MIC (P. mirabilis IID 994) [µg/mL] | MIC (K. pneumoniae 1-220S) [µg/mL] | MIC [4] [µg/mL] | MIC [6] [µg/mL] | MIC (Shigella sonnei IID 969) [µg/mL] | MIC [7] [µg/mL] | MIC (B. fragilis 25285) [µg/mL] | MIC (B. fragilis 8503) [µg/mL] | MIC [8] [µg/mL] | MIC (F. varium KYA 8501) [µg/mL] | MIC [9] [µg/mL] | MIC (C. perfringens KYA 13123) [µg/mL] | MIC [10] [µg/mL] | MIC (S. epidermidis) [µg/mL] | MIC (S. pyogenes) [µg/mL] | MIC (N. gonorrhoeae) [µg/mL] | also measured
NC1CCN(c2c(F)cc3c(=O)c(C(=O)O)cn(C4CC4)c3c2Cl)C1 (stereo not drawn) [Example 25, 7-(3-Amino-l-pyrrolidinyl)-8-chloro-l-cyclopropyl-6-fluoro-1,4-dihydro-4-oxo-3-quinolinecarboxylic acid] | 0.05 (≈ 0.137 µM) | 0.1 (≈ 0.273 µM) | 0.1 | ≤ 0.006 | 0.0125 (≈ 0.0342 µM) | 0.05 (≈ 0.137 µM) | 0.05 (≈ 0.137 µM) | 0.05 (≈ 0.137 µM) | 0.0125 (≈ 0.0342 µM) | 0.05 (≈ 0.137 µM) | 0.1 (≈ 0.273 µM) | 0.39 (≈ 1.07 µM) | 0.2 (≈ 0.547 µM) | 0.78 (≈ 2.13 µM) | 1.56 | 0.1 (≈ 0.273 µM) | 0.2 | 0.05 (≈ 0.137 µM) | 0.1 (≈ 0.273 µM) | 0.013 (≈ 0.0355 µM) | MIC ([3]; Klebsiella pneumoniae): 0.0125 µg/mL (≈ 0.0342 µM); MIC ([5]; Citrobacter freundii): 0.0125 µg/mL (≈ 0.0342 µM); MIC (N. meningitidis): 0.006 µg/mL (≈ 0.0164 µM); MIC (B. catarrhalis): 0.05 µg/mL (≈ 0.137 µM); MIC (E. coli): 0.013 µg/mL (≈ 0.0355 µM); MIC (S. aureus): 0.05 µg/mL (≈ 0.137 µM); MIC (E. cloacae): 0.013 µg/mL (≈ 0.0355 µM); MIC (P. vulgaris): 0.05 µg/mL (≈ 0.137 µM); MIC (C. freundii): 0.1 µg/mL (≈ 0.273 µM); MIC (P. maltophilia): 0.78 µg/mL (≈ 2.13 µM); MIC (Acinetobacter sp.): 0.1 µg/mL (≈ 0.273 µM); MIC (Campylobacter jejuni): 0.05 µg/mL (≈ 0.137 µM); Frequency of spontaneous resistant mutants (S. aureus Smith): <2.9 × 10^-9; Frequency of spontaneous resistant mutants (E. cloacae IID 977; [11]): 6.7 × 10^-10; Frequency of spontaneous resistant mutants (E. cloacae IID 977; [12]): <6.7 × 10^-10; Frequency of spontaneous resistant mutants (S. marcescens IID 618; [13]): 1.5 × 10^-8; Frequency of spontaneous resistant mutants (S. marcescens IID 618; [14]): <1.0 × 10^-9; Frequency of spontaneous resistant mutants (P. aeruginosa IFO 12689; [15]): 4.5 × 10^-8; Frequency of spontaneous resistant mutants (P. aeruginosa IFO 12689; [16]): <6.3 × 10^-10
CC1CN(c2c(F)cc3c(=O)c(C(=O)O)cn(C4CC4)c3c2Cl)CCN1 (stereo not drawn) [Ref.2, 8-Chloro-1-cyclopropyl-6-fluoro-1,4-dihydro-7-(3-methyl-1-piperazinyl)-4-oxo-3-quinolinecarboxylic acid] | 0.39 (≈ 1.03 µM) | 0.39 (≈ 1.03 µM) | 0.39 | ≤ 0.006 | 0.0125 (≈ 0.0329 µM) | 0.05 (≈ 0.132 µM) | 0.05 (≈ 0.132 µM) | 0.05 (≈ 0.132 µM) | 0.0125 (≈ 0.0329 µM) | 0.05 (≈ 0.132 µM) | 0.39 (≈ 1.03 µM) | 0.78 (≈ 2.05 µM) | 0.78 (≈ 2.05 µM) | 3.13 (≈ 8.24 µM) | 3.13 | 0.39 (≈ 1.03 µM) | 0.78 | 0.1 (≈ 0.263 µM) | 0.39 (≈ 1.03 µM) | 0.006 (≈ 0.0158 µM) | MIC ([3]; Klebsiella pneumoniae KY(GN)6445, 10^6 cells/ml, Gram -, read-out: MIC): 0.025 µg/mL (≈ 0.0658 µM); MIC ([5]; Citrobacter freundii IID 976, 10^6 cells/ml, Gram -, read-out: MIC): 0.05 µg/mL (≈ 0.132 µM); MIC (N. meningitidis): 0.006 µg/mL (≈ 0.0158 µM); MIC (B. catarrhalis): 0.05 µg/mL (≈ 0.132 µM); MIC (E. coli): 0.025 µg/mL (≈ 0.0658 µM); MIC (S. aureus): 0.1 µg/mL (≈ 0.263 µM); MIC (E. cloacae): 0.05 µg/mL (≈ 0.132 µM); MIC (P. vulgaris): 0.05 µg/mL (≈ 0.132 µM); MIC (C. freundii): 0.2 µg/mL (≈ 0.527 µM); MIC (P. maltophilia): 1.56 µg/mL (≈ 4.11 µM); MIC (Acinetobacter sp.): 0.78 µg/mL (≈ 2.05 µM); MIC (Campylobacter jejuni): 0.2 µg/mL (≈ 0.527 µM); Frequency of spontaneous resistant mutants (S. aureus Smith): 3.6 × 10^-7; Frequency of spontaneous resistant mutants (E. cloacae IID 977; [11]): 3.1 × 10^-7; Frequency of spontaneous resistant mutants (E. cloacae IID 977; [12]): <6.7 × 10^-10; Frequency of spontaneous resistant mutants (S. marcescens IID 618; [13]): 1.0 × 10^-7; Frequency of spontaneous resistant mutants (S. marcescens IID 618; [14]): <1.0 × 10^-9; Frequency of spontaneous resistant mutants (P. aeruginosa IFO 12689; [15]): 5.5 × 10^-7; Frequency of spontaneous resistant mutants (P. aeruginosa IFO 12689; [16]): <6.3 × 10^-10

— EP0195316A1, “Quinolonecarboxylic acid derivatives” (KYORIN PHARMACEUTICAL CO., LTD., priority 1985, dated 1986)
